For 15 compounds, IC50, half-life and microsomal CLint results are on record in patent US10138245B2, “Fused triazole derivatives as phosphodiesterase 10A inhibitors” (Celon Pharma S.A., priority 2014, dated 2018).

Data set [1] addresses Recombinant human phosphodiesterase 10A (PDE10A) (Homo sapiens (Human), UniProt Q9Y233). The experiment in a line: Assay of phosphodiesterase 10 inhibition in vitro (PDE-Glo luminescent method). Format: biochemical. Particulars: averaged IC50 values, read-out: hPDE10A1 IC50. As to the method: 1. Assay of Phosphodiesterase 10 Inhibition In Vitro
Recombinant human phosphodiesterase 10A (PDE10A) purified to homogeneity from Sf9 cells overexpressing PDE10A gene (GenBank/EMBL accession number: NM_001130690) was used for inhibition tests.
Inhibitory activity of the compounds towards PDE10A was tested using PDE-Glo (Promega Corporation, Madison, USA) luminescent method on 96-well plates. Test was performed for 8 concentrations of the compounds. Test compounds were dissolved in 100% DMSO and resulted solutions were diluted 5× in concentrated PDE-Glo Reaction Buffer. Eight concentrations of each tested compound were obtained by subsequent dilution. 5 μl of obtained solutions were added into the wells of 96-well plate. Next, 7.5 μl of a solution containing […] enzyme diluted in 1× concentrated PDE-Glo Reaction Buffer were added into the well to obtain the final amount of 2-10 ng (depending on the activity of the enzyme batch used in the study). In order to facilitate interaction between compounds and the enzyme, plates were incubated for 1 minute at room temperature and then 9 minutes at 4° C. Reaction was initiated by addition of 12.5 μl of 2 μM cAMP solution into the well and subsequently plate was incubated at 30° C.
After 40 minutes reaction was stopped by addition of 12.5 μl of PDE-Glo Termination Buffer with high concentration of a known PDE10 inhibitor. Plate content was stirred with orbital shaker at 500 RPMs for 10 minutes and then in the next step 12.5 μl of freshly prepared PDE-Glo Detection Solution were added into the well.
Plate was incubated for 20 minutes at room temperature before 50 μl of Kinase Glo reagent (Promega Corporation, Madison, USA) was applied into the wells and incubation at room temperature was continued for the next 10 minutes. After incubation, luminescence intensity in wells was measured with the Victor Light (Perkin Elmer Inc.) luminometer.
Percent of PDE10A inhibition by tested compounds was determined based on luminescence intensity measurements in wells containing test compounds and in control wells. Results were then fitted using a four-parameter logistic fit in GraphPad Prism 5.03 software (GraphPad Software Inc.). Negative control wells contained all above mentioned reagents except test compounds and positive control wells contained all above mentioned reagents except test compounds and the PDE10A enzyme. Each chemical compound was assayed in at least two independent runs (2×96-well plate in duplicate) with at least 3 wells of each of the controls.

Data set [2] in a line: Metabolic stability in rat liver microsomal fraction. Type of data set: in vitro ADME. The conditions noted are these: liver microsomes, 37° C., phase I cofactors; for microsomal CLint: read-out: Cl(int). As to the method: Tested compounds were incubated in triplicates with rat liver microsomal fraction at 37° C. in the presence of metabolic phase I cofactors (NADP, G6P, G6P dehydrogenase, MgCl2) necessary for metabolic transformations. Concentration of a non-metabolized tested compound in the reaction mixture was measured using LC/MS method at 4 time points: after 0, 20, 40 and 60 min of incubation. The AUC of compounds at those time points were compared with AUC at point 0 to obtain % loss of parental compound. The obtained data were used for calculation of internal clearance (Cl(int)) and half-life (T½). The metabolic activity of microsomes was assessed by measuring the stability of two standards with low and high metabolic stability, propranolol and donepezil, respectively.

The structures appear in SMILES notation.

Sequence of Recombinant human phosphodiesterase 10A (PDE10A) (Q9Y233 267-1055): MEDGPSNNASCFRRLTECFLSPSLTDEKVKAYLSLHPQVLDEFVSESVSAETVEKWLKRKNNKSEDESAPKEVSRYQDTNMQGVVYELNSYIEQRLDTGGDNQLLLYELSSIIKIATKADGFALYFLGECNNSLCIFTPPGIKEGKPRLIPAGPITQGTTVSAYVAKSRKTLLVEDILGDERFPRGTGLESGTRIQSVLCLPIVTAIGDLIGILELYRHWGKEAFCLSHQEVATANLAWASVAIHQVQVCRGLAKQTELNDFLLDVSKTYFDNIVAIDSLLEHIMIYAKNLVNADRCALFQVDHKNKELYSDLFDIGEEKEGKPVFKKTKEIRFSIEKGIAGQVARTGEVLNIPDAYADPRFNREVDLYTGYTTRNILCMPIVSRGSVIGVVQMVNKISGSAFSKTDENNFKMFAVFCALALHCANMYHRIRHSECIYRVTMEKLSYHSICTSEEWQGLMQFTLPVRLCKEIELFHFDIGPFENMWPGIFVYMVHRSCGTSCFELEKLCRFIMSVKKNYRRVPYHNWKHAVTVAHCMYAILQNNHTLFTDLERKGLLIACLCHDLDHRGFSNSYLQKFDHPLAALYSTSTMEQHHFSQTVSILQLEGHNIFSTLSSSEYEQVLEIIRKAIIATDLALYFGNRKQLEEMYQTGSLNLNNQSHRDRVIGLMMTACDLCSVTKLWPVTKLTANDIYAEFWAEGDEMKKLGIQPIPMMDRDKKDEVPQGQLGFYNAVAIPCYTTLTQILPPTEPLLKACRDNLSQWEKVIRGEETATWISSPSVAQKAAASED

Take `Cc1cc(C)n2nc(-c3ccc4c(c3)nc(-c3ccccc3)n4C)nc2n1` [Example 48A, 5,7-Dimethyl-2-(1-methyl-2-phenyl-1H-benzo[d]imidazol-5-yl)-[1,2,4]-triazolo[1,5-a]pyrimidine]: the IC50 in data set [1] was 794 nM.
In the case of `Cc1ncc(C)n2nc(-c3ccc4[nH]c(-c5nccs5)nc4c3)nc12` [Example 8, 5,8-Dimethyl-2-[2-(1,3-thiazol-2-yl)-1H-benzimidazol-5-yl][1,2,4]triazolo[1,5-a]pyrazine], in data set [1], the IC50 worked out at 84 nM.
`Cc1ncc(C)n2nc(-c3ccn4cc(-c5ccccc5)nc4n3)nc12` [Example 57, 5,8-Dimethyl-2-(2-phenylimidazo[1,2-a]pyrimidin-7-yl)[1,2,4]triazolo[1,5-a]pyrazine]: the IC50 in data set [1] is 35.7 nM. In data set [2], the half-life was found to be 1.1 h and the microsomal CLint is 34.9 µL/min/mg.
Consider `Cc1cc(C)n2nc(-c3ccc4nc(-c5ccccc5)n(C)c4c3)nc2n1` [Example 48B, 5,7-Dimethyl-2-(1-methyl-2-phenyl-1H-benzo[d]imidazol-6-yl)-[1,2,4]-triazolo[1,5-a]pyrimidine], for which the concentration for half-maximal inhibition (IC50) in data set [1] is 413 nM.
Same read-out and setting: the figure for `Cc1ncc(C)n2nc(-c3ccc4[nH]c(-c5ccccc5F)nc4c3)nc12` [Example 2, 2-[2-(2-Fluorophenyl)-1H-benzo[d]imidazol-5-yl]-5,8-dimethyl-[1,2,4]-triazolo[1,5-a]pyrazine] is 37 nM; for `COc1ccccc1-c1nc2cc(-c3nc4c(C)ncc(C)n4n3)ccc2[nH]1` [Example 41, 2-[2-(2-Methoxyphenyl)-1H-benzimidazol-5-yl]-5,8-dimethyl[1,2,4]triazolo[1,5-a]-pyrazine] it is 19.5 nM; for `Cc1ncc(C)n2nc(-c3ccc4[nH]c(-c5ccccn5)nc4c3)nc12` [Example 40, 5,8-Dimethyl-2-[2-(pyridin-2-yl)-1H-benzimidazol-5-yl][1,2,4]triazolo[1,5-a]pyrazine] it is 63 nM.
As for `Cc1ncc(C)n2nc(-c3ccc4[nH]c(-c5cccc(F)c5)nc4c3)nc12` [Example 6, 2-[2-(3-Fluorophenyl)-1H-benzimidazol-5-yl]-5,8-dimethyl[1,2,4]triazolo[1,5-a]pyrazine], the IC50 in data set [1] was determined as 172 nM.
Consider `Cc1cc(C)n2nc(-c3ccc4[nH]c(-c5ccccc5)nc4c3)nc2n1` [Example 1, 5,7-Dimethyl-2-(2-phenyl-1H-benzo[d]imidazol-5-yl)-[1,2,4]triazolo-[1,5-a]pyrimidine], for which the half-inhibitory concentration (IC50) in data set [1] was 47 nM.
Consider `Cc1ncc(C)n2nc(-c3ccc4[nH]c(-c5ccccc5)nc4c3)nc12` [Example 4, 5,8-Dimethyl-2-(2-phenyl-1H-benzimidazol-5-yl)[1,2,4]triazolo[1,5-a]pyrazine], for which, in data set [1], the IC50 was 27 nM. Also, in data set [2], the half-life came out at 1.05 h and the microsomal CLint stood at 36.8 µL/min/mg.
With `Cc1cc(C)n2nc(-c3ccc4[nH]c(-c5ccccn5)nc4c3)nc2n1` [Example 3, 5,7-Dimethyl-2-[2-(pyridin-2-yl)-1H-benzo[d]imidazol-5-yl]-[1,2,4]triazolo[1,5-a]pyrimidine], the half-inhibitory concentration (IC50) in data set [1] is 279 nM.
Turning to `Cc1ncc(C)n2nc(-c3ccn4cc(-c5ccccc5)nc4c3)nc12` [Ex. 1 of WO2013003298, reference compound], in data set [2], the half-life worked out at 0.559 h and the microsomal CLint is 68.9 µL/min/mg.
As for `Cc1cc(C)n2nc(-c3ccc4[nH]c(-c5ccncc5)nc4c3)nc2n1` [Example 5, 5,7-Dimethyl-2-[2-(pyridin-4-yl)-1H-benzimidazol-5-yl][1,2,4]triazolo[1,5-a]pyrimidine], in data set [1], the concentration for half-maximal inhibition (IC50) turned out to be 953 nM.
As for `Cc1ncc(C)n2nc(-c3ccc4[nH]c(-c5ccc(F)cc5)nc4c3)nc12` [Example 7, 2-[2-(4-Fluorophenyl)-1H-benzimidazol-5-yl]-5,8-dimethyl[1,2,4]triazolo[1,5-a]pyrazine], the IC50 in data set [1] turned out to be 54 nM.
On to `Cc1cc(C)n2nc(-c3ccn4cc(-c5ccccc5)nc4n3)nc2n1` [Example 56, 5,7-Dimethyl-2-(2-phenylimidazo[1,2-a]pyrimidin-7-yl)[1,2,4]triazolo-[1,5-a]pyrimidine], for which the IC50 in data set [1] came to 96 nM.
